The values below come from US8404710B2, “Phosphodiesterase 10A inhibitor” (Kyorin Pharmaceutical Co., Ltd., priority 2002, dated 2013).

In test [1] the target is PDE10A (Homo sapiens, UniProt Q9Y233). As to conditions: human PDE10A gene product; cited from earlier work.
The target of test [2] is T1, PDE4D3 (Homo sapiens, UniProt Q08499).
T1 construct: cDNA of full length PDEs, specifically, PDE1A3, PDE2A3, PDE3A, PDE3B, PDE4A4, PDE4B2, PDE4C2, PDE4D3; made in house; host or cells: Sf9 insect cells (baculovirus)
Description: Inhibition of recombinant human PDE4D3 by ibudilast. The format is biochemical. As to conditions: PDE 4D3, substrate cAMP 2 μM.

In test [3] the target is T2, PDE9A2 (Homo sapiens, UniProt O76083).
T2 construct: cDNA of full length PDEs, specifically, PDE1A3, PDE2A3, PDE3A, PDE3B, PDE4A4, PDE4B2, PDE4C2, PDE4D3, PDE5A1, PDE5A2, PDE5A3, PDE7A2, PDE8A1, PDE9A2; made in house; host or cells: Sf9 insect cells (baculovirus)
Description: Inhibition of recombinant human PDE9A2 by ibudilast. The format is biochemical. As to conditions: PDE 9A2, substrate cGMP 0.2 μM.

The target of test [4] is T3, PDE4C2 (Homo sapiens, UniProt Q08493).
T3 construct: cDNA of full length PDEs, specifically, PDE1A3, PDE2A3, PDE3A, PDE3B, PDE4A4, PDE4B2, PDE4C2; made in house; host or cells: Sf9 insect cells (baculovirus)
Description: Inhibition of recombinant human PDE4C2 by ibudilast. As to conditions: PDE 4C2, substrate cAMP 2 μM. The test is classed as biochemical.

For test [5], the target named is PDE4A4 (Homo sapiens, UniProt P27815). Description: Inhibition of recombinant human PDE4A4 by ibudilast. As to conditions: PDE 4A4, substrate cAMP 2 μM. The format is biochemical.
Test [6] has as its target T4, PDE8A1 (Homo sapiens, UniProt O60658).
T4 construct: cDNA of full length PDEs, specifically, PDE1A3, PDE2A3, PDE3A, PDE3B, PDE4A4, PDE4B2, PDE4C2, PDE4D3, PDE5A1, PDE5A2, PDE5A3, PDE7A2, PDE8A1; made in house; host or cells: Sf9 insect cells (baculovirus)
The test is described as follows: Inhibition of recombinant human PDE8A1 by ibudilast. The test is classed as biochemical. As to conditions: PDE 8A1, substrate cAMP 0.2 μM.

The target in test [7] is T5, PDE1A3 (Homo sapiens, UniProt P54750).
T5 construct: cDNA of full length PDEs, specifically, PDE1A3; made in house; host or cells: Sf9 insect cells (baculovirus)
The test is described as follows: Inhibition of recombinant human PDE1A3 by ibudilast. The format is biochemical.

The target in test [8] is T6, PDE11A1 (Homo sapiens, UniProt Q9HCR9).
T6 construct: cDNA of full length PDEs, specifically, PDE1A3, PDE2A3, PDE3A, PDE3B, PDE4A4, PDE4B2, PDE4C2, PDE4D3, PDE5A1, PDE5A2, PDE5A3, PDE7A2, PDE8A1, PDE9A2, PDE10A1, and PDE11A1; made in house; host or cells: Sf9 insect cells (baculovirus)
Description: Inhibition of recombinant human PDE11A1 by ibudilast. The format is biochemical.

Test [9] has as its target T7, PDE7A2 (Homo sapiens, UniProt Q13946).
T7 construct: cDNA of full length PDEs, specifically, PDE1A3, PDE2A3, PDE3A, PDE3B, PDE4A4, PDE4B2, PDE4C2, PDE4D3, PDE5A1, PDE5A2, PDE5A3, PDE7A2; made in house; host or cells: Sf9 insect cells (baculovirus)
The test is described as follows: Inhibition of recombinant human PDE7A2 by ibudilast. The test is classed as biochemical. As to conditions: PDE 7A2, substrate cAMP 0.2 μM.

Test [10] concerns the target T8, PDE3B (Homo sapiens, UniProt Q13370).
T8 construct: cDNA of full length PDEs, specifically, PDE1A3, PDE2A3, PDE3A, PDE3B; made in house; host or cells: Sf9 insect cells (baculovirus); unpurified cell suspension in RIPA buffer
Description: Inhibition of recombinant human PDE3B by ibudilast (Sf9 cell suspension). The format is biochemical. As to conditions: PDE 3B, substrate cAMP 2 μM.

In test [11] the target is T9, PDE10A1 (Homo sapiens, UniProt Q9Y233).
T9 construct: cDNA of full length PDEs, specifically, PDE1A3, PDE2A3, PDE3A, PDE3B, PDE4A4, PDE4B2, PDE4C2, PDE4D3, PDE5A1, PDE5A2, PDE5A3, PDE7A2, PDE8A1, PDE9A2, PDE10A1; made in house; host or cells: Sf9 insect cells (baculovirus)
The test is described as follows: Inhibition of recombinant human PDE10A1 by ibudilast. The format is biochemical.

In test [12] the target is T10, PDE2A3 (Homo sapiens, UniProt O00408).
T10 construct: cDNA of full length PDEs, specifically, PDE1A3, PDE2A3; made in house; host or cells: Sf9 insect cells (baculovirus)
The test is described as follows: Inhibition of recombinant human PDE2A3 by ibudilast. The test is classed as biochemical. As to conditions: PDE 2A3, substrate cAMP 2 μM.

T9 sequence (Q9Y233 1-779 isoform Q9Y233-1): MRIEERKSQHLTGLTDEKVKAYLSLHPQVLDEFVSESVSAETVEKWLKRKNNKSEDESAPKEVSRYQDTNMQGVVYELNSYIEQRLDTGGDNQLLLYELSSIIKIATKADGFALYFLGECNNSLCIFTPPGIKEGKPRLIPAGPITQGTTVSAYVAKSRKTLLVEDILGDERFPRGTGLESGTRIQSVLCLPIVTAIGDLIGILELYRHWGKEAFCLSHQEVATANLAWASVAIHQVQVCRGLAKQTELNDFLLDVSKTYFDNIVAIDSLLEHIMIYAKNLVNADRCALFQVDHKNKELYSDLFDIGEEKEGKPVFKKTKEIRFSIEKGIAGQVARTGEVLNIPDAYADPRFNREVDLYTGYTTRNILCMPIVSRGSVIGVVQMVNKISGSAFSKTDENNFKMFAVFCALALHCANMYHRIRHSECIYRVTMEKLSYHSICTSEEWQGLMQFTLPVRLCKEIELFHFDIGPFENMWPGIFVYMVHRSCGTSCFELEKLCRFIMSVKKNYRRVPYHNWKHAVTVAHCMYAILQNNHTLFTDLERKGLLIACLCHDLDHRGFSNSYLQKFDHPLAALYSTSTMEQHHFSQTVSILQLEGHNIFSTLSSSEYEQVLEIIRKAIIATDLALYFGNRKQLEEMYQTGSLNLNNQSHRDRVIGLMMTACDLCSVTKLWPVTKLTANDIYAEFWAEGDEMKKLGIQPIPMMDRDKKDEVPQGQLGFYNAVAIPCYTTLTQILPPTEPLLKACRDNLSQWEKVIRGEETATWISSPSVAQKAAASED
T6 sequence (Q9HCR9 445-933): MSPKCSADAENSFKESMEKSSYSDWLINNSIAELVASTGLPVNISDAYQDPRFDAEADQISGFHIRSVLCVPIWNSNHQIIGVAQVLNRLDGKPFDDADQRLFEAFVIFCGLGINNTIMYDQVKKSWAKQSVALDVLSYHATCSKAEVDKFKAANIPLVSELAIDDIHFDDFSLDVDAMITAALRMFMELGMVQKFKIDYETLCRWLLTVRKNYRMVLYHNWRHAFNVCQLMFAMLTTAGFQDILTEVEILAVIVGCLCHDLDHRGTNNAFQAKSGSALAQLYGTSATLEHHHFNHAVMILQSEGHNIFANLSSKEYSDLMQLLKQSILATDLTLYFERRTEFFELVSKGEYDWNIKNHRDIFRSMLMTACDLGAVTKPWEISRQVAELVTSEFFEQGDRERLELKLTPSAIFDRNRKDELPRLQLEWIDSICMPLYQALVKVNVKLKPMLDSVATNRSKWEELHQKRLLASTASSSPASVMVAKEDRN
T5 sequence (P54750 whole entry): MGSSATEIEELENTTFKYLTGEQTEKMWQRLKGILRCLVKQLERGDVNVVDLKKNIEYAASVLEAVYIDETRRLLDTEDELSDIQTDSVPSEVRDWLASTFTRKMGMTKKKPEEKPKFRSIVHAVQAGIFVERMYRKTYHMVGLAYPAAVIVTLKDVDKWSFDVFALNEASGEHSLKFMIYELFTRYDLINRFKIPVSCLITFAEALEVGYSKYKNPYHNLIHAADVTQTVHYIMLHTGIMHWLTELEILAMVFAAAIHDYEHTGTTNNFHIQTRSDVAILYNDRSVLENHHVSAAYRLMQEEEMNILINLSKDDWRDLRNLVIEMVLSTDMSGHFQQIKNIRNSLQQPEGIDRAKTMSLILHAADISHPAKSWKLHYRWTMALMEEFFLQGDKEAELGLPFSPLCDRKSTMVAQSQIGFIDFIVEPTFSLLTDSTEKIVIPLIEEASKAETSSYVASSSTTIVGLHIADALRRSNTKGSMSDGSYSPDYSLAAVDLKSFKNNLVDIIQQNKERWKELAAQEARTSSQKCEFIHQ
PDE4A4, sequence (P27815 whole entry): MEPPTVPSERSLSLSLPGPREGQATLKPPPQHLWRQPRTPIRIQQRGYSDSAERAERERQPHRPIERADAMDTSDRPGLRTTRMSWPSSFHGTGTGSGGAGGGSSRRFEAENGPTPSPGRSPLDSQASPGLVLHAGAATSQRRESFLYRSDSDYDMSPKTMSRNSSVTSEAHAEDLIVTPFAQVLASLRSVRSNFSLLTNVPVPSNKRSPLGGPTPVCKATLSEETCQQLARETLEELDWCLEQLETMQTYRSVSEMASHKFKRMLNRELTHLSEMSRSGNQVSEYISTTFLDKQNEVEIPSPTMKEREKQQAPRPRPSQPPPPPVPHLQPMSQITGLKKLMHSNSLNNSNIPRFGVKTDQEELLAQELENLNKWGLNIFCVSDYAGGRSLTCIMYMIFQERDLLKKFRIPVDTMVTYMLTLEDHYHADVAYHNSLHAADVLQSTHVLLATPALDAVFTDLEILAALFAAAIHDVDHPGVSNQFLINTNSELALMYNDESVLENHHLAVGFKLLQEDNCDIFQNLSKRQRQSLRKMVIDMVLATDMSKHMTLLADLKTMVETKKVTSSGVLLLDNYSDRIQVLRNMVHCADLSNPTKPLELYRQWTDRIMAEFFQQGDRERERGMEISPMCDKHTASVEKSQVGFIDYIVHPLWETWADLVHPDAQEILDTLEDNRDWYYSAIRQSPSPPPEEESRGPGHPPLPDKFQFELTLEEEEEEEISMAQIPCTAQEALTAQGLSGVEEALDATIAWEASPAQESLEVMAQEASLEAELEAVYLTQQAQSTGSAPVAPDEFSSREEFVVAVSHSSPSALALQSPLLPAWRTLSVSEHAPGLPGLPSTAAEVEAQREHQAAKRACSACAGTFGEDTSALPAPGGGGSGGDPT
T8 sequence (Q13370 whole entry): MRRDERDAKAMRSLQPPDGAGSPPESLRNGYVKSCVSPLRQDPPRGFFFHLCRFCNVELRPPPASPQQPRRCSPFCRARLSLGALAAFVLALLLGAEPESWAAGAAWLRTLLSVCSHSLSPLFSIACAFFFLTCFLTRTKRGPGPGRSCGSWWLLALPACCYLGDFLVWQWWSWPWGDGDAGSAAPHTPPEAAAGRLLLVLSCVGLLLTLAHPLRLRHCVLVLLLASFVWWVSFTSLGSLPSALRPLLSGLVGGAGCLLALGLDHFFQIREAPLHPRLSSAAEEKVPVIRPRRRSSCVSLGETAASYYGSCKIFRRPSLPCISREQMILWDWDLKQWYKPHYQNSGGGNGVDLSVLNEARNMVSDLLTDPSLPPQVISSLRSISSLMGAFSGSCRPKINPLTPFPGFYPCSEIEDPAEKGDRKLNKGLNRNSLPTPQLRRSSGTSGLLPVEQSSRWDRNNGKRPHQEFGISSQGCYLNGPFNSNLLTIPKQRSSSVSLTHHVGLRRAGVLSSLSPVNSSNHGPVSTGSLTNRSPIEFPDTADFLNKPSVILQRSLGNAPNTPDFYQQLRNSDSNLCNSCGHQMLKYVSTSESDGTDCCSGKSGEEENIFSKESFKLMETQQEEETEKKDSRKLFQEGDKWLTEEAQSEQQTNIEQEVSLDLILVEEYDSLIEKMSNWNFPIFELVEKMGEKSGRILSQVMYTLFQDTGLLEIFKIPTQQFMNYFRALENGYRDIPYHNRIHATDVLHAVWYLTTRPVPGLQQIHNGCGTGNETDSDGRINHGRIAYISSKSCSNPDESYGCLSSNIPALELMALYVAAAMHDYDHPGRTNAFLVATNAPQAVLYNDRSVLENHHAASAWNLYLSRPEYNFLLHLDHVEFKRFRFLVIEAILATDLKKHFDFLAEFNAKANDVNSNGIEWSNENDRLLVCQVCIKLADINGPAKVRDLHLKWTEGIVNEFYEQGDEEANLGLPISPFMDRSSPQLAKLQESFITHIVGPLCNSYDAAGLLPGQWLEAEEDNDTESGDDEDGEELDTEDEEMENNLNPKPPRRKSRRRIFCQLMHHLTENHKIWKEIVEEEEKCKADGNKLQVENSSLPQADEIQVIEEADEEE
T2 sequence (O76083 1-533 isoform O76083-2): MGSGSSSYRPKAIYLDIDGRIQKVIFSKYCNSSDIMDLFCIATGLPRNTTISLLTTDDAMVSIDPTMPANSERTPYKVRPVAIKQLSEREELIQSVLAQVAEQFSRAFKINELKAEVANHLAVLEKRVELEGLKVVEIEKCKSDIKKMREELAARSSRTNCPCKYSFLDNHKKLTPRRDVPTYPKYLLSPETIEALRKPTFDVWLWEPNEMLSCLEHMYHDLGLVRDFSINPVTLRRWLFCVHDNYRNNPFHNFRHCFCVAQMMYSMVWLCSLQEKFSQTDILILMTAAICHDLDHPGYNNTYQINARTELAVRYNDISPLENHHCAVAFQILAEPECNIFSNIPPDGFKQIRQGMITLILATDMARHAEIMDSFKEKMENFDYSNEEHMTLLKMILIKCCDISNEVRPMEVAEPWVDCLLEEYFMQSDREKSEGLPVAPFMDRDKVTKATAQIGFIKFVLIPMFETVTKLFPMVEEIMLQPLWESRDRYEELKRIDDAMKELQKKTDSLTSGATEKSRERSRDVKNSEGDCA
T3 sequence (Q08493 107-712): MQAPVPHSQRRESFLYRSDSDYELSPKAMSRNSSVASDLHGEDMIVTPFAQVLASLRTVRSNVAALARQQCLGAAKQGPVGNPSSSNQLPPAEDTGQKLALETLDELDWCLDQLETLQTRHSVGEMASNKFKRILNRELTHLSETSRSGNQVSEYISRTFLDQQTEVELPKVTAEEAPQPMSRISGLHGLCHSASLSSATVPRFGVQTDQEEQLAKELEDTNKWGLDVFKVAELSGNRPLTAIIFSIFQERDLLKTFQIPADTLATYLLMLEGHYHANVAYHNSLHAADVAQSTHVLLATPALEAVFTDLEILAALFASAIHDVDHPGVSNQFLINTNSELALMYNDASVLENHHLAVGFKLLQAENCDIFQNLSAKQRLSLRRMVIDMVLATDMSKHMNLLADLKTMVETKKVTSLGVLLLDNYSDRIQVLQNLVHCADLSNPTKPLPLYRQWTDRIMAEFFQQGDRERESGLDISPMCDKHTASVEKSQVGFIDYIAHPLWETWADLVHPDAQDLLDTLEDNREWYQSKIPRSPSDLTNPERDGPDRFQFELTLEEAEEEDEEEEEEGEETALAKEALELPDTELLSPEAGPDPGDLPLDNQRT

Consider `OCCN(CCO)c1nc(N2CCCCC2)c2nc(N(CCO)CCO)nc(N3CCCCC3)c2n1` [dipyridamole], for which the “inhibition of PDE10A” value in test [1] is recorded as “inhibited”.

As a reminder, the IC50 is the midpoint of a concentration-inhibition curve. For the compound `CC(C)C(=O)c1c(C(C)C)nn2ccccc12` [ibudilast, 3-isobutyryl-2-isopropyl pyrazolo[1,5-a]pyridine], the IC50 is 6 µM in test [2]; greater than 400 µM in [3]; 11 µM in test [4]; 6 µM in [5]; 49 µM in test [6]; 40 µM in [7] (PDE 1A3, substrate cAMP 2 μM). Moreover, the IC50 was 121 µM in test [7] (PDE 1A3, substrate cGMP 2 μM); 17 µM in test [8] (PDE 11A1, substrate cAMP 2 μM); 36 µM in test [8] (PDE 11A1, substrate cGMP 0.2 μM); 115 µM in test [9]; 266 µM in [10]; 3000 nM in [11] (PDE 10A1, substrate cAMP 0.2 μM). The IC50 in test [11] (PDE 10A1, substrate cGMP 2 μM) was found to be 1000 nM; in [12] it was 78 µM. Besides, the “inhibition of PDE10A1 compared with other PDEs” value in test [11] (in vitro, recombinant human PDE) was “particularly strong inhibition”.
